# Where no end group is shown, it is not given here.
# Columns and labels:
# [1] = tested on: rat bone marrow mesenchymal stem cells (rBMSCs); assay: Preliminary study: chondroinductivity with rBMSCs by rt-PCR; assay type: cell-based; details: 100 ng/ml in medium, 3 days, p<0.05
# Description: In a preliminary study, the chondroinductivities of Link N peptide (SEQ ID NO: 9, Table 2) and SPPEPS (SEQ ID NO:2) with rBMSCs were evaluated at two plate coating densities (0.5 and 1 μg/mm2) and two soluble concentrations (10 and 100 ng/mL) after 3 days by rt-PCR (n=3). For rBMSCs cultured on TCT plates the chondroinductivity was compared with negative control (no growth factor or peptide in the cell culture medium) and positive control group. The positive control was a known chondrogenic growth factor in lieu of the SPPEPS (SEQ ID NO:2) peptide, i.e., 10 ng/ml (dissolved in rBMSCs cell culture medium) human transforming growth factor-β3 (TGF-β3, R&D systems, Minneapolis, MN).
# The gene expressions were analyzed for all the rBMSCs samples cultured on the TCT plates after 3 days (n=6) and all the rBMSCs cultured on the hydrogel surface after 3 days (n=4). The gene expressions of each sample were evaluated in triplicate. […] GAPDH was used as an endogenous control, with relative gene expression measured using the 2^−ΔΔCt method. […]
# [2] = tested on: rat bone marrow mesenchymal stem cells (rBMSCs); assay: Gene expression (rt-PCR) of rBMSCs on TCT plates, SPPEPS coated or in medium; assay type: cell-based
# Description: In one set of experimental groups, the SPPEPS (SEQ ID NO:2) peptide was adsorbed to the well plate surface. The peptide was dissolved in sterile DI water (20 μg/mL), sterile-filtered (0.22 μm), and was added to sterile 96-well plates to reach the desired coating concentrations (0.5, 1 and 3 μg/mm2) before overnight water evaporation at room temperature in sterile conditions. The rBMSCs were thawed and after passage 4 were cultured on the plates (150,000 cells/well, i.e., […]), for the control groups the rBMSCs were cultured (150,000 cells/well) on the uncoated TCT plates and the cell culture medium was changed every second day.
# In a separate set of experimental groups, SPPEPS (SEQ ID NO:2) peptide was included in soluble form in the medium instead of being coated on the surface. rBMSCs were cultured on 96-well plates (150,000 cells/well) with cell culture medium containing SPPEPS (SEQ ID NO:2) (50, 100 and 500 ng/ml). The cell culture medium containing the peptide was changed every second day.
# rBMSCs were cultured either on TCT plastic plates or on a hydrogel-coated surface. For the cells cultured on TCT plates, three different concentrations of SPPEPS (SEQ ID NO:2) peptide (50, 100 and 500 ng/ml) in cell culture medium, three different coating concentrations (0.5, 1 and 3 μg/mm2) and a control group (no growth factor or peptide in the cell culture medium) were chosen (n=6) and the peptide chondroinductivity was evaluated by rt-PCR after 3 days (see FIGS. 2-4 and gene expression subsection below).
# The gene expressions were analyzed for all the rBMSCs samples cultured on the TCT plates after 3 days (n=6) and all the rBMSCs cultured on the hydrogel surface after 3 days (n=4). The gene expressions of each sample were evaluated in triplicate. To prepare the samples for gene expression, the mRNAs were extracted after 3 days using Qiagen RNeasy mini kit (Valencia, CA) following the kit instructions, before reverse transcription using a cDNA kit (Invitrogen, Carlsbad, CA). rt-PCR was performed with a qTOWER^3 Thermal Cycler (Upland. CA) using TaqMan Col2A1, Sox9, ACAN and GAPDH primers (Invitrogen, Carlsbad, CA). GAPDH was used as an endogenous control, with relative gene expression measured using the 2^−ΔΔCt method. For cells on both surfaces, the calibrators were the rBMSCs at passage 4 before transferring them to the 96-well plates.
# rBMSC spheroids = assay: Collagen II gene expression of rBMSC spheroids (SPPEPS vs TGF-β3); assay type: cell-based, rat; details: 100 ng/ml SPPEPS; normoxic and hypoxic; n=5
# Description: Collagen II gene expression with control (no supplement), TGF-β3, or SPPEPS (1, 100 ng/ml). Hypoxic bars are righthand, normoxic bars are lefthand. n=5, p<0.05 difference from αnormoxic control, βhypoxic control, *normoxic counterpart, SSPPEPS (SEQ ID NO: 2) 1 ng/ml, #normoxic TGF-β3,!all groups.
# [3] = 50 ng/ml, 100 ng/ml and 500 ng/ml groups, 3 days
# [4] = 100 ng/ml in medium, 3 days, p<0.05
# [5] = coating 0.5 μg/mm2, 3 days, p<0.05
# [6] = coating 1 μg/mm2, 3 days, p<0.05
# [7] = coating 3 μg/mm2, 3 days, p<0.05
substance,measurement,setting,value
SPPEPS [chondroinductive peptide],"collagen type II gene expression, times higher than in the control group",[1],2.3 times
same,"Sox9 gene expression, times higher than coating group",[2]; 50 ng/ml in medium vs coating 0.5 μg/mm2,4.5 times
same,"Sox9 gene expression, times higher than coating group",[2]; 50 ng/ml in medium vs coating 1 μg/mm2,4.9 times
same,"Sox9 gene expression, times higher than coating group",[2]; 50 ng/ml in medium vs coating 3 μg/mm2,5.2 times
same,aggrecan gene expression higher compared to the control group,"[2]; 50 ng/ml in medium, 3 days, p<0.05",34%
same,aggrecan gene expression higher than the control group (FIG. 4 legend),[2]; [3],~35%
same,aggrecan gene expression relative to the control group (FIG. 4 legend),[2]; [3],about 1.5 ×
same,collagen type II gene expression higher than the control group (FIG. 3 legend),"[2]; 100 ng/ml in medium, 3 days",35%
same,aggrecan gene expression higher compared to the control group,[2]; [4],35%
same,"collagen type II gene expression, times higher than in the control group",[2]; [4],1.5 times
same,"collagen type II gene expression, times higher compared to SPPEPS 50 ng/mL","[2]; 100 ng/ml in medium, p<0.05",1.5 times
same,"collagen type II gene expression, times higher compared to SPPEPS 500 ng/mL","[2]; 100 ng/ml in medium, p<0.05",1.6 times
same,"Sox9 gene expression, times higher than coating group",[2]; 500 ng/ml in medium vs coating 0.5 μg/mm2,3.2 times
same,"Sox9 gene expression, times higher than coating group",[2]; 500 ng/ml in medium vs coating 1 μg/mm2,3.4 times
same,"Sox9 gene expression, times higher than coating group",[2]; 500 ng/ml in medium vs coating 3 μg/mm2,3.6 times
same,aggrecan gene expression higher compared to the control group,"[2]; 500 ng/ml in medium, 3 days, p<0.05",31%
same,Sox9 gene expression: control group times higher than coating group,[2]; [5],4.0 times
same,collagen type II gene expression lower than in the control group,[2]; [5],61%
same,Sox9 gene expression: control group times higher than coating group,[2]; [6],4.2 times
same,collagen type II gene expression lower than in the control group,[2]; [6],74%
same,Sox9 gene expression: control group times higher than coating group,[2]; [7],4.5 times
same,aggrecan gene expression higher compared to the control group,[2]; [7],31%
same,collagen type II gene expression lower than in the control group,[2]; [7],75%
same,chondroinduction (collagen II gene expression) compared to TGF-β3,rBMSC spheroids,outperforms TGF-β3

# Source: US12377191B2, “Chondroinductive peptides and compositions and methods of use thereof” (The Board of Regents of the University of Oklahoma, priority 2018, dated 2025)
